The text below walks through data of paper PMC9043233, “Newly synthesised oxime and lactone derivatives from Dipterocarpus alatus dipterocarpol as anti-diabetic inhibitors: experimental bioassay-based evidence and theoretical computation-based prediction” (RSC Advances, 2021).

Entries after “also recorded” stand apart in the source; their conditions may differ.

The target in the first data set is α-glucosidase (Saccharomyces cerevisiae, UniProt P53341). In kind it is biochemical. The method, then: The bioassay was carried out on 96 well-plates (200 μL per well). A solution of the test samples in 10% dimethyl sulfoxide (DMSO) was diluted further to concentrations of 1024, 256, 64, 16, 4, and 1 μg mL^−1. Each concentration of the test samples (10 μL) was incubated at 37 °C with phosphate buffer 100 mM (pH 6.8, 40 μL), α-glucosidase 0.4 U mL^−1 (25 μL), and p-nitrophenyl α-D-glucopyranoside 2.5 mM (25 μL). The reaction was stopped after 30 min by adding 100 μL of 0.1 M Na2CO3. The enzyme activities were measured based on the absorbance at λmax 405 nm of the test samples. […] Percentage inhibition was calculated as follows:[38]α-Glucosidase inhibition (%) = [Abs(control) − Abs(sample)]/Abs(control) × 100%
Chain of α-glucosidase (P53341 whole entry): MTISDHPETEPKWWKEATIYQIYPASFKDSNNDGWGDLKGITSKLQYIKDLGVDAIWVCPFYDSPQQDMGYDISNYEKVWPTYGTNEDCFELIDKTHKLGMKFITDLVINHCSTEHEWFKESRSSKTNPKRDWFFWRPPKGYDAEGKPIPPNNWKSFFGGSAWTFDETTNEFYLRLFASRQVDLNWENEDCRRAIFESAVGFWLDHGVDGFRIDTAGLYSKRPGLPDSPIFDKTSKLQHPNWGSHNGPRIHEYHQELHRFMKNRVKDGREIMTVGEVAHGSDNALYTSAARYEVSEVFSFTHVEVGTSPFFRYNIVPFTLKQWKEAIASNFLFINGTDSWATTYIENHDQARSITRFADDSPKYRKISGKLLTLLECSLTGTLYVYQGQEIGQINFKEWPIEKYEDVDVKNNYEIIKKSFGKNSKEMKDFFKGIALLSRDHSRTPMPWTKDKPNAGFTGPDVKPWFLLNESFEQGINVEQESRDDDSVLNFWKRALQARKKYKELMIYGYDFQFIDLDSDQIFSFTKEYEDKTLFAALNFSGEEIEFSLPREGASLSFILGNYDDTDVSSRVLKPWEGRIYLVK
Regarding `CC1(C)C(=O)CC[C@@]2(C)C1CC[C@]1(C)C2CCC2[C@@H]([C@@]3(C)CCC(=O)O3)CC[C@]21C` (stereo partly drawn) [Compound 4, 17-[(5α-methyl)-3,4H-furane-2-one]-25,26,27-tris-nor-dammar-3-one], the “α-glucosidase inhibition, result in words” value (“α-glucosidase inhibition” for short) is given as “no inhibition activity; also recorded: unnoticeable inhibition”.

On to `CC(C)=CCCC(C)(O)C1CCC2(C)C1CCC1C3(C)CCC(=NOC(=O)c4cnc(C)cn4)C(C)(C)C3CCC12C` [Compound 3a, 20(S)-hydroxy dammar-24-ene-3-oximyl-[5-methyl-3,6-diazine-1-carboxylate]], for which the “α-glucosidase inhibition” value is listed as “no inhibition activity; also recorded: unnoticeable inhibition”.

For `CC(C)=CCCC(C)(O)C1CCC2(C)C1CCC1C3(C)CCC(=NOC(=O)c4ccccc4I)C(C)(C)C3CCC12C` [Compound 3h, 20(S)-hydroxydammar-24-ene-3-oximyl-[2-iodobenzoate]], the “α-glucosidase inhibition” value is “loss of their activity; also recorded: no inhibition activity; also recorded: unnoticeable inhibition”.

For `CC(C)=CCCC(C)(O)C1CCC2(C)C1CCC1C3(C)CCC(=NOC(=O)c4cc(I)cc(I)c4O)C(C)(C)C3CCC12C` [Compound 3d, 20(S)-hydroxydammar-24-ene-3-oximyl-[2-hydroxy-3,5-diiodobenzoate]], the “α-glucosidase inhibition” value is “loss of their activity; also recorded: no inhibition activity”.

Take `CC(C)=CCCC(C)(O)C1CCC2(C)C1CCC1C3(C)CCC(=NOC(=O)c4ccc(F)cc4)C(C)(C)C3CCC12C` [Compound 3g, 20(S)-hydroxydammar-24-ene-3-oximyl-[4-fluorobenzoate]]: the “α-glucosidase inhibition” value is “no α-glucosidase inhibition; also recorded: no inhibition activity; also recorded: unnoticeable inhibition”.

As to `CC(C)=CCCC(C)(O)C1CCC2(C)C1CCC1C3(C)CCC(=NOC(=O)C(C)C)C(C)(C)C3CCC12C` [Compound 3m, 20(S)-hydroxydammar-24-ene-3-oximyl isobutyrate], the “α-glucosidase inhibition” value is “no inhibition activity; also recorded: unnoticeable inhibition”.

As to `CC(C)=CCC[C@](C)(O)[C@H]1CC[C@]2(C)[C@@H]1CC[C@@H]1[C@@]3(C)CCC(=O)C(C)(C)[C@@H]3CC[C@]12C` [Compound 1, dipterocarpol], the “α-glucosidase inhibition” value is given as “weak activity”.

Test system in the next data set: not given
`CC(=O)O[C@H]1CC[C@@]2(C)C(CC[C@]3(C)C2CCC2[C@@H]([C@@]4(C)CCC(=O)O4)CC[C@]23C)C1(C)C` (stereo partly drawn) [Compound 6a, 17-[(5α-methyl)-3,4H-furane-2-one]-3β-(O-acetyl)-25,26,27-tris-nor-dammarane] returned a melting point of 248 to 249 °C.

Compound `CC1(C)C(=O)CC[C@@]2(C)C1CC[C@]1(C)C2CCC2[C@@H]([C@@]3(C)CCC(=O)O3)CC[C@]21C` (stereo partly drawn) [Compound 4, 17-[(5α-methyl)-3,4H-furane-2-one]-25,26,27-tris-nor-dammar-3-one] showed a melting point of 118.4 to 120.3 °C.

The compound `CC(C)C(=O)O[C@H]1CC[C@@]2(C)C(CC[C@]3(C)C2CCC2[C@@H]([C@@]4(C)CCC(=O)O4)CC[C@]23C)C1(C)C` (stereo partly drawn) [Compound 6c, 17-[(5α-methyl)-3,4H-furane-2-one]-3β-(O-isobutyryl)-25,26,27-tris-nor-dammarane] displayed a melting point of 206 to 207 °C.

On to `CC1(C)C2CC[C@]3(C)C(CCC4[C@@H]([C@@]5(C)CCC(=O)O5)CC[C@]43C)[C@@]2(C)CC[C@@H]1OC(=O)/C=C/c1ccccc1` (stereo partly drawn) [Compound 6e, 17-[(5α-methyl)-3,4H-furane-2-one]-3β-(O-cinnamoyl)-25,26,27-tris-nor-dammarane], for which the melting point is 236 to 238 °C.

`CC1(C)C2CC[C@]3(C)C(CCC4[C@@H]([C@@]5(C)CCC(=O)O5)CC[C@]43C)[C@@]2(C)CC[C@@H]1OC(=O)c1ccccc1O` (stereo partly drawn) [Compound 6d, 17-[(5α-methyl)-3,4H-furane-2-one]-3β-(O-salycyloyl)-25,26,27-tris-nor-dammarane] had a melting point of 186 to 187 °C.

Compound `CC1(C)C2CC[C@]3(C)C(CCC4[C@@H]([C@@]5(C)CCC(=O)O5)CC[C@]43C)[C@@]2(C)CC[C@@H]1O` (stereo partly drawn) [Compound 5, 3β-hydroxy-17-[(5α-methyl)-3,4H-furane-2-one]-25,26,27-tris-nor-dammarane] yielded a melting point of 195 to 196 °C.

In turn, `CCCCC(=O)O[C@H]1CC[C@@]2(C)C(CC[C@]3(C)C2CCC2[C@@H]([C@@]4(C)CCC(=O)O4)CC[C@]23C)C1(C)C` (stereo partly drawn) [Compound 6b, 17-[(5α-methyl)-3,4H-furane-2-one]-3β-(O-pentanoyl)-25,26,27-tris-nor-dammarane] came in with a melting point of 134 to 135 °C.

For orientation: melting point means the temperature of the solid-liquid transition.
